Data: BindingDB's records for doi:10.1021/jm030165t (National Center For Genetic Engineering and Biotechnology …, 2004)
pIC50, pKi: −log10 of the molar value.

What was measured:
[1] = molecular target: Bifunctional dihydrofolate reductase-thymidylate synthase (Plasmodium falciparum (isolate K1 / Thailand), UniProt P13922); test: Binding affinity towards wild-type dihydrofolate reductase of Plasmodium falciparum.
[2] = In vitro anti-plasmodial activity against Plasmodium falciparum dihydrofolate reductase wild type (TM4/8.2)
[3] = In vitro anti-plasmodial activity against Plasmodium falciparum dihydrofolate reductase N51I/C59R/S108N (W2)
[4] = In vitro anti-plasmodial activity against Plasmodium falciparum dihydrofolate reductase C59R/S108N (K1CB1) mutant
[5] = In vitro anti-plasmodial activity against Plasmodium falciparum dihydrofolate reductase C59R+S108N/I164L (Csl-2) mutant
[6] = In vitro anti-plasmodial activity against Plasmodium falciparum dihydrofolate reductase […]/C59R/S108N/I164L (V1/S) mutant
[7] = In vitro anti-plasmodial activity against Plasmodium falciparum dihydrofolate reductase A16V/S108T (T9/94RC17) mutant

Chain of Bifunctional dihydrofolate reductase-thymidylate synthase (P13922 whole entry): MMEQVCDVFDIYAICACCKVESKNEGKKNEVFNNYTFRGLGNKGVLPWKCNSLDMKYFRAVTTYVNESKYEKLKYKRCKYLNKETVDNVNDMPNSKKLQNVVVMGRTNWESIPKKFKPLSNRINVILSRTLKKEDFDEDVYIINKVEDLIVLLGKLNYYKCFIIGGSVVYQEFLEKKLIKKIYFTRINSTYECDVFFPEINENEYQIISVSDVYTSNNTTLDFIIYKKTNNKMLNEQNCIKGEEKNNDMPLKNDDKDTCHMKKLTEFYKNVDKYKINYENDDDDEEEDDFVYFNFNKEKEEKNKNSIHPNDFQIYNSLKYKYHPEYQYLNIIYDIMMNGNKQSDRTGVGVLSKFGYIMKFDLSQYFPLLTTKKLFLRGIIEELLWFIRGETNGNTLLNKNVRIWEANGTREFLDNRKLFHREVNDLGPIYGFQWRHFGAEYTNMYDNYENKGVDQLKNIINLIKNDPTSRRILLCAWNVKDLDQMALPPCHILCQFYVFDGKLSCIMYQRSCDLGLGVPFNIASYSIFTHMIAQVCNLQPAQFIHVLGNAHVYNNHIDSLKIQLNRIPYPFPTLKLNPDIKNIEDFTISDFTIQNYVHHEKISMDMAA

SMILES	pKi [1]	pIC50 [2]	pIC50 [3]	pIC50 [4]	pIC50 [5]	pIC50 [6]	pIC50 [7]
CCCC1(C)N=C(N)N=C(N)N1c1ccc(Cl)cc1 (stereo unspecified) [1-(4-Chloro-phenyl)-6-methyl-6-propyl-1,6-dihydro-[1,3,5]triazine-2,4-diamine]	8.46	–	–	–	–	–	–
NC1=NC(c2cccc(OCc3ccccc3)c2)N(c2ccc(Cl)cc2)C(N)=N1 (stereo unspecified) [6-(3-Benzyloxy-phenyl)-1-(4-chloro-phenyl)-1,6-dihydro-[1,3,5]triazine-2,4-diamine]	9.15	–	–	–	–	–	–
CCCC1(C)N=C(N)N=C(N)N1c1cccc(Cl)c1 (stereo unspecified) [1-(3-chlorophenyl)-6-methyl-6-propyl-1,6-dihydro-1,3,5-triazine-2,4-diamine]	8.34	6.74	6.55	6.74	6.54	5.96	–
COc1ccc(CCCc2nc(N)nc(N)c2-c2cccc(Cl)c2)cc1 [5-(3-Chloro-phenyl)-6-[3-(4-methoxy-phenyl)-propyl]-pyrimidine-2,4-diamine]	–	6.39	5.40	–	5.57	5.33	–
CC(C)C1(C)N=C(N)N=C(N)N1c1cccc(Cl)c1 (stereo unspecified) [1-(3-Chloro-phenyl)-6-isopropyl-6-methyl-1,6-dihydro-[1,3,5]triazine-2,4-diamine]	7.59	–	–	–	–	–	–
CC(=O)OCCCc1nc(N)nc(N)c1-c1cccc(Cl)c1 [Acetic acid 3-[2,6-diamino-5-(3-chloro-phenyl)-pyrimidin-4-yl]-propyl ester]	–	5.80	5.68	–	5.74	5.28	–
NC1=NC(c2cccc(OCc3ccccc3)c2)N(c2cccc(Cl)c2)C(N)=N1 (stereo unspecified) [6-(3-(benzyloxy)phenyl)-1-(3-chlorophenyl)-1,6-dihydro-1,3,5-triazine-2,4-diamine]	8.64	5.40	5.48	5.31	5.12	–	6.72
Nc1nc(N)c(-c2cccc(Cl)c2)c(CCOCCCOc2ccccc2)n1 [5-(3-chlorophenyl)-6-[2-(3-phenoxypropoxy)ethyl]pyrimidine-2,4-diamine]	–	6.46	5.35	–	5.54	5.34	–
NC1=NC(c2ccc(Oc3ccccc3)cc2)N(c2ccc(Cl)cc2)C(N)=N1 (stereo unspecified) [1-(4-chlorophenyl)-6-(4-phenoxyphenyl)-1,6-dihydro-1,3,5-triazine-2,4-diamine]	9.40	6.92	5.49	5.51	5.32	–	7.40
Nc1nc(N)c(-c2ccccc2)c(CCCc2ccccc2)n1	–	6.68	5.57	–	5.57	5.07	–
CC(=O)OCCCc1nc(N)nc(N)c1-c1ccccc1 [Acetic acid 3-(2,6-diamino-5-phenyl-pyrimidin-4-yl)-propyl ester]	7.97	–	–	–	–	–	–
CCc1nc(N)nc(N)c1-c1cccc(Cl)c1 [5-(3-chlorophenyl)-6-ethylpyrimidine-2,4-diamine]	–	6.38	5.41	–	5.60	5.04	–
CCCCCCC1(C)N=C(N)N=C(N)N1c1cccc(Cl)c1 (stereo unspecified) [1-(3-Chloro-phenyl)-6-hexyl-6-methyl-1,6-dihydro-[1,3,5]triazine-2,4-diamine]	8.62	7.22	6.29	6.32	6.31	5.49	–
CC1(C)N=C(N)N=C(N)N1c1ccc(Cl)cc1 [Chlorazin]	–	7.40	5.24	–	4.42	< 4.00	5.43
CCCCCCC1(C)N=C(N)N=C(N)N1c1ccc(Cl)cc1 (stereo unspecified) [1-(4-chlorophenyl)-6-hexyl-6-methyl-1,6-dihydro-1,3,5-triazine-2,4-diamine]	9.22	7.70	5.48	5.62	5.39	5.19	5.72
Nc1nc(N)c(-c2ccccc2)c(CCCOC(=O)c2ccccc2)n1 [Benzoic acid 3-(2,6-diamino-5-phenyl-pyrimidin-4-yl)-propyl ester]	8.47	–	–	–	–	–	–
CCCCCCc1nc(N)nc(N)c1-c1ccccc1 [6-hexyl-5-phenylpyrimidine-2,4-diamine]	–	7.22	5.64	–	5.52	5.19	–

SMILES	pKi [1]	pIC50 [2]	pIC50 [3]	pIC50 [4]	pIC50 [5]	pIC50 [6]	pIC50 [7]
CCCCCCCC1N=C(N)N=C(N)N1c1cccc(Cl)c1 (stereo unspecified) [1-(3-Chloro-phenyl)-6-heptyl-1,6-dihydro-[1,3,5]triazine-2,4-diamine]	8.57	7.40	6.48	6.59	6.85	5.60	8.40
NC1=NC(c2cccc(Oc3ccc(Cl)cc3)c2)N(c2cccc(Cl)c2)C(N)=N1 (stereo unspecified) [6-(3-(4-chlorophenoxy)phenyl)-1-(3-chlorophenyl)-1,6-dihydro-1,3,5-triazine-2,4-diamine]	8.89	5.41	5.70	5.59	5.51	5.49	6.41
NC1=NC(c2cccc(Oc3ccc(Cl)cc3)c2)N(c2ccc(Cl)cc2)C(N)=N1 (stereo unspecified) [6-(3-(4-chlorophenoxy)phenyl)-1-(4-chlorophenyl)-1,6-dihydro-1,3,5-triazine-2,4-diamine]	8.85	5.55	–	5.48	–	–	6.38
NC1=NC(c2cccc(Oc3ccccc3)c2)N(c2cccc(Cl)c2)C(N)=N1 (stereo unspecified) [1-(3-chlorophenyl)-6-(3-phenoxyphenyl)-1,6-dihydro-1,3,5-triazine-2,4-diamine]	8.96	5.66	5.46	5.57	5.47	5.44	7.22
CC(C)C1(C)N=C(N)N=C(N)N1c1ccc(Cl)cc1 (stereo unspecified) [1-(4-Chloro-phenyl)-6-isopropyl-6-methyl-1,6-dihydro-[1,3,5]triazine-2,4-diamine]	7.44	–	–	–	–	–	–
NC1=NC(c2ccc(Oc3ccccc3)cc2)N(c2cccc(Cl)c2)C(N)=N1 (stereo unspecified) [1-(3-chlorophenyl)-6-(4-phenoxyphenyl)-1,6-dihydro-1,3,5-triazine-2,4-diamine]	9.15	6.19	6.13	5.51	5.48	5.48	8.40
Nc1nc(N)c(-c2cccc(Cl)c2)c(CCCO)n1 [3-[2,6-Diamino-5-(3-chloro-phenyl)-pyrimidin-4-yl]-propan-1-ol]	8.04	5.96	5.35	–	5.72	5.21	–
CCCOc1ccc(C2N=C(N)N=C(N)N2c2cccc(Cl)c2)cc1 (stereo unspecified) [1-(3-chlorophenyl)-6-(4-propoxyphenyl)-1,6-dihydro-1,3,5-triazine-2,4-diamine]	–	6.60	6.42	6.00	5.54	5.54	8.40
NC1=NC(c2cccc(Oc3cc(Cl)cc(Cl)c3)c2)N(c2cccc(Cl)c2)C(N)=N1 (stereo unspecified) [1-(3-Chloro-phenyl)-6-[3-(3,5-dichloro-phenoxy)-phenyl]-1,6-dihydro-[1,3,5]triazine-2,4-diamine]	8.74	5.26	5.47	5.51	5.41	5.41	7.30
Nc1nc(N)c(-c2cccc(Cl)c2)c(CCCc2ccccc2)n1	–	6.17	5.37	–	5.44	5.24	–
NC1=NC(c2ccccc2)N(c2cccc(Cl)c2)C(N)=N1 (stereo unspecified) [1-(3-chlorophenyl)-6-phenyl-1,6-dihydro-1,3,5-triazine-2,4-diamine]	–	6.25	6.70	6.51	6.60	6.10	7.70
NC1=NC(c2cccc(Oc3ccccc3)c2)N(c2ccc(Cl)cc2)C(N)=N1 (stereo unspecified) [1-(4-Chloro-phenyl)-6-(3-phenoxy-phenyl)-1,6-dihydro-[1,3,5]triazine-2,4-diamine]	9.30	–	–	–	–	–	–
Nc1nc(N)c(-c2cccc(Cl)c2)c(CCCOC(=O)OCc2ccccc2)n1 [benzyl 3-(2,6-diamino-5-(3-chlorophenyl)pyrimidin-4-yl)propyl carbonate]	8.92	5.72	5.39	–	5.72	5.23	–
NC1=NC(c2cccc(Oc3cccc(C(F)(F)F)c3)c2)N(c2cccc(Cl)c2)C(N)=N1 (stereo unspecified) [1-(3-chlorophenyl)-6-(3-(3-(trifluoromethyl)phenoxy)phenyl)-1,6-dihydro-1,3,5-triazine-2,4-diamine]	8.57	5.49	5.55	5.55	5.47	5.49	6.74
NC1=NC(c2cccc(OCCCOc3cc(Cl)c(Cl)cc3Cl)c2)N(c2cccc(Cl)c2)C(N)=N1 (stereo unspecified) [1-(3-chlorophenyl)-6-(3-(3-(2,4,5-trichlorophenoxy)propoxy)phenyl)-1,6-dihydro-1,3,5-triazine-2,4-diamine]	8.40	5.52	5.49	5.13	5.28	5.07	6.43
Nc1nc(N)c(-c2cccc(Cl)c2)c(CCCOC(=O)c2ccccc2)n1 [3-(2,6-diamino-5-(3-chlorophenyl)pyrimidin-4-yl)propyl benzoate]	8.82	5.68	5.70	–	5.72	5.12	–
